# In patent US20230285389A1, “USE OF CSF-1R KINASE INHIBITOR” (Shanghai Runshi Medical Technology Co., Ltd, priority 2020, published 2023):
# Tests used:
# [1] = system: CSF-1-induced bone marrow-derived macrophages (BMDM); experiment: CSF-1-induced murine-derived macrophage (BMDM) survival (CCK-8); type: cell-based, BALB/c mice; settings: Mus musculus, 168 h, read-out: IC50 inhibition of cell survival, BMDM (CSF-1)
# Experimental: BALB/c mice (female, 6 weeks old, healthy) were sacrificed. Bone marrow cells were taken from their femurs and tibia, and seeded into a 96-well culture plate at appropriate densities (90 µL per well) after erythrobiasis treatment. 100 ng/mL of CSF-1 factor was added to each well to induce macrophages (Bone marrow-derived macrophages, BMDM), and compounds at various concentrations were added and the plate was allowed for incubation for 7 days. A solvent control group (negative control) was set. After 7 day-exposure of the cells to the compounds, 10 µL of CCK-8 reagent was added to each well. The culture plate was placed in an incubator at 37° C. for 2-4 h, and then was read with a full-wavelength microplate reader setting at the wavelength of 450 nm.
# [2] = system: mouse colon cancer MC38 xenografts; experiment: Pharmacodynamic experiment, growth of subcutaneous MC38 xenografts; type: in vivo; settings: for TV (mean ±SEM) D0: day 0 (baseline); for TGI D7 / TV (mean ±SEM) D7: day 7; for TGI D14 / TV (mean ±SEM) D14: day 14; for TGI D20 / TV (mean ±SEM) D20: day 20; for TGI D24 / TV (mean ±SEM) D24: day 24
# Experimental: MC38 cells in good condition were re-suspended to 25 million cells/mL. 200 µL of cell suspension was inoculated subcutaneously in the right armpit of each mouse. When the tumor cells formed subcutaneous xenograft in the mice and grew to an average volume of approximately 100 mm^3, the mice were randomly assigned to the dosing group and the control group. The test compounds were prepared at the desired concentrations and corresponding equal amount of solvent was used as a solvent control. The drugs were administrated orally, and administrated once per day for 24 consecutive days.
# During the dosing period, the xenograft volumes of the mice and the weights of the mice were measured every 2-4 days. The experiment was terminated 24 days after dosing.
# The tumor volume (TV) was calculated as TV = ½×a×b^2, where “a” and “b” are the length and width of an xenograft, respectively.
# Statistical tests were performed using the t test, with p≤0.05 representing a significant difference.
# [3] = system: CSF-1-induced human macrophages (PBMC-derived CD14+ monocytes); experiment: Survival of CSF-1-induced human macrophages from PBMC (CCK-8); type: cell-based; settings: Homo sapiens, 168 h, read-out: IC50 inhibition of cell survival, PBMC (CSF-1)
# Experimental: Cryopreserved human-derived peripheral blood (peripheral blood from healthy donors) mononuclear cells (PBMCs) were taken out of liquid nitrogen for recovery. After recovery, the cells were re-suspended at 50 million/mL with the running buffer and DNAase I was added at a final concentration of 100 µg/mL and the plate was allowed for incubation for 15 min at room temperature. After centrifugation at 300 g for 5 min, the supernatant was discarded. The pellet was re-suspended at 50 million cells/mL with the running buffer, and the suspension was filtered through a 70 µM filter screen into a flow tube. The cells were sorted by using CD14+ monocyte negative selection beads sorting kit from […] company. According to the manufacture’s instructions, the specific experimental procedures were as follows.
# After cells were re-suspended at 50 million cells/mL, 50 µL of the cocktail was added to each one mL of samples. The samples were incubated at room temperature for 5 min. The magnetic beads were vortexed for 30 sec, and added to the samples. The samples were incubated for further 5 min. The sample volumes were made up to 2.5 mL. The samples were placed on a magnetic frame ([…], #18000) for 2.5 min. […] The plate was placed in an incubator at 37° C. for 2-4 h, and then was read with an adjustable wavelength microplate reader setting at a wavelength of 450 nm.
# [4] = system: mouse colon cancer CT-26 xenograft; experiment: Growth of subcutaneous CT-26 xenografts, combination with anti-PD-1 antibody; type: in vivo, BALB/c mice; settings: compound I alone (+ Rat IgG2a isotype), 5 mg/kg orally once a day, 12 days
# Experimental: CT-26 cells were subcutaneously inoculated into the right axillary fossa of BALB/c mice at a cell number of 5 × 10^6 per mouse. When the tumor cells successfully formed subcutaneous xenografts in the mice which further grew to an average volume of approximately 100 mm^3, the mice were randomly assigned to the dosing group and the control group. For the anti-PD-1 antibody group, an anti-PD-1 antibody (Bio X Cell Company, InVivoMAb anti-mouse PD-1 (CD279) (catalog : BE0273)) was administered […] once every three days at 10 mg/kg for 12 days. The control group was administrated the same amount of Hamster Ig (Rat IgG2a), as the isotype control of the anti-PD-1 antibody, and the administration route, dosage and frequency were same as those for the anti-PD-1 antibody group. […] Throughout the experiment, the tumor volume and the mice’s body weights were measured twice a week.
# The tumor volume (TV) was calculated as TV = ½×a×b^2, where “a” and “b” are the length and width of the xenograft, respectively.
# The relative tumor volume (RTV) was calculated from the results of the measurement according to the following equation:
# RTV = Vt/V0, where V0 was the tumor volume measured at the beginning of administration (i.e., d0) and Vt was the tumor volume measured at each point.
# The evaluation index of the anti-tumor activity was tumor growth inhibition ratio TGI (%), which was calculated as: […]
structure (smiles),measurement,setting,value
CNC(=O)c1cccc2cc(Oc3ccnc(NC(=O)c4ccc(N5C[C@@H](C)N[C@@H](C)C5)cc4)c3)ccc12 [Compound I],IC50,[1],10.2 ± 0.8 nM
same,TV (mean ±SEM) D0,[2]; 2.5 mg/kg oral once per day,79±13 mm3
same,TGI D7,[2]; 2.5 mg/kg oral once per day,63.3%
same,TV (mean ±SEM) D7,[2]; 2.5 mg/kg oral once per day,119±17 mm3
same,TGI D14,[2]; 2.5 mg/kg oral once per day,63.0%
same,TV (mean ±SEM) D14,[2]; 2.5 mg/kg oral once per day,232±39 mm3
same,TGI D20,[2]; 2.5 mg/kg oral once per day,74.6%
same,TV (mean ±SEM) D20,[2]; 2.5 mg/kg oral once per day,281±59 mm3
same,TGI D24,[2]; 2.5 mg/kg oral once per day,75.3%
same,TV (mean ±SEM) D24,[2]; 2.5 mg/kg oral once per day,348±80 mm3
same,TV (mean ±SEM) D0,[2]; 10 mg/kg oral once per day,79±12 mm3
same,TGI D7,[2]; 10 mg/kg oral once per day,100.9%
same,TV (mean ±SEM) D7,[2]; 10 mg/kg oral once per day,78±15 mm3
same,TGI D14,[2]; 10 mg/kg oral once per day,90.1%
same,TV (mean ±SEM) D14,[2]; 10 mg/kg oral once per day,120±42 mm3
same,TGI D20,[2]; 10 mg/kg oral once per day,95.2%
same,TV (mean ±SEM) D20,[2]; 10 mg/kg oral once per day,117±46 mm3
same,TGI D24,[2]; 10 mg/kg oral once per day,93.4%
same,TV (mean ±SEM) D24,[2]; 10 mg/kg oral once per day,150±64 mm3
same,growth of murine colon cancer MC38 cell xenografts,[2]; oral once per day for 24 days,significantly inhibited
same,IC50,[3],30.5 ± 5.1 nM
same,TGI / tumor inhibition rate,[4],45.8%
